# Columns and labels:
# [1] = Plasma pharmacokinetics of sodium oxybate given orally (background and definition statements); conditions: human, oral
# [2] = test system: patients with hyperkinetic movement disorders including ethanol responsive myoclonus and essential tremor; conditions: five patients, open label; cited from earlier work
# [3] = in man, given orally; cited from earlier work
smiles,measurement,setting,value
"O=C(O)CCCO [sodium oxybate, Sodium gamma-hydroxybutyrate]",Tmax,[1],30 to 150 min
same,half-life,[1],24 to 54 min
same,blinded ratings of ethanol responsive myoclonus and tremor,[2],dose-dependent improvements
same,tolerability,[2],tolerated at doses that provided clinical benefit
same,plasma half-life,[3],about 45 minutes
